Data reported in US20230059582A1, “CANNABINOID DERIVATIVES” (CANOPY GROWTH CORPORATION, priority 2019, published 2023).
Like-named read-outs stand apart in the source and are kept apart here.

Columns and labels:
human CB1 receptor = molecular target: T1, human CB1 receptor (Homo sapiens, UniProt P21554); experiment: CB1 radioligand competitive binding assay ([3H]CP 55,940 displacement); details: for Selectivity CB1: fold difference between CB1 and CB2 binding, printed in the column of the receptor with higher affinity, 1.00 in both = about the same affinity
T1 construct: host or cells: CHO-K1 (stably transfected cell line, membranes prepared in house)

human CB2 receptor = molecular target: T2, human CB2 receptor (Homo sapiens, UniProt P34972); experiment: CB2 radioligand competitive binding assay ([3H]CP 55,940 displacement); details: for Selectivity CB2: fold difference between CB1 and CB2 binding, printed in the column of the receptor with higher affinity, 1.00 in both = about the same affinity
T2 construct: host or cells: CHO-K1 (stably transfected cell line, membranes prepared in house)
Procedure: Compounds of the present disclosure were tested for CB1 receptor binding affinity and for CB2 receptor binding affinity. As used herein, “binding affinity” is represented by the IC50 value, which was experimentally determined as described herein. The lower the IC50 value the higher the binding affinity. A compound of the present disclosure may be said to have “binding selectivity” if it has a higher binding affinity for one receptor compared to the other.
The membranes were prepared from CHO-K1 (Chinese hamster ovary) cells stably transfected with the human CB2 receptor (Cat. #ES-111-C; Perkin Elmer, Boston, Mass.). The cells were grown adherently and maintained in Ham's F12 medium containing 10% fetal bovine serum (FBS), penicillin, streptomycin and geneticin (G418) at 37° C. in a humid atmosphere of 5% CO2 following the manufacturer's instructions.
For membrane preparation the cells were washed with PBS and scraped off the plates in cold homogenization buffer (25 mM HEPES (pH 7.4), 2 mM EDTA) containing protease inhibitor cocktail (Sigma Cat. #P8340). The cell suspension was homogenized with a Pro-PK-01200D Polytron Homogenizer (Pro Scientific) and then centrifuged for 30 min at 120,000×g. The supernatant was discarded and the pellet was re-suspended in the homogenization buffer and stored at −80° C. until the time of use.
In this experiment, 3H radiolabeled CP 55,940, i.e. [3H]CP 55,940 (Perkin Elmer, Boston, Mass.), was used as a radioligand for the CB2 receptor to determine the binding affinity of compounds for the CB2 receptor (Scheme 3; above).
The competition binding experiments (single dose and dose-response) were performed by incubating 0.6 nM of [3H]CP55,940 (specific activity 101 Ci/mmol, Perkin Elmer) and different concentrations of compounds disclosed herein with membranes prepared as above from CHO-K1 cells expressing human CB2 receptor (1 μg of protein/well), 50 mM Tris-HCl (pH 7.4), 5 mM MgCl2, 1 mM CaCl2, and 2 mg/mL BSA.
For the single dose experiments, the compound stocks (usually 10 mM in DMSO) were diluted to working stocks in the binding buffer to give the final compound concentrations of 10 μM and 1 μM. For the dose-response experiments the test compounds were sequentially diluted to provide the desired concentration range for the IC50 determination. In each case the compounds were pre-incubated with the membrane for 20 min, before adding the radioligand.
After incubation with the radioligand for 60 min at 37° C., the incubation was terminated by rapid filtration of assay mixture through MultiScreen®HTS^+ 96-well filter plates (Millipore, Cat. #MSFCNXB), pre-soaked for 60 min with 50 mM Tris-HCl (pH 7.4) containing 0.33% polyethylenimine (PEI). The nonspecific binding (NSB) was determined in the presence of 10 μM unlabelled CP55,940. After drying the filter plate at 50° C. for at least 60 min, the filter-bound radioactivity was determined by scintillation spectrometry using the 1450 MicroBeta Plate Counter (Perkin Elmer, Boston, Mass.). From the dose-response experiments, the IC50 values were determined (see Table 1, CB2 IC50).
Where the test compound had about the same affinity for both receptors, this is represented by a value of 1.00 in the column for both receptors.

[1] = 0.8 nM [3H]CP 55,940, membranes from CHO-K1 cells expressing human CB1 receptor, dose-response, read-out: CB1 IC50
[2] = 0.6 nM [3H]CP 55,940, membranes from CHO-K1 cells expressing human CB2 receptor, dose-response, read-out: CB2 IC50

T2 sequence (P34972 whole entry): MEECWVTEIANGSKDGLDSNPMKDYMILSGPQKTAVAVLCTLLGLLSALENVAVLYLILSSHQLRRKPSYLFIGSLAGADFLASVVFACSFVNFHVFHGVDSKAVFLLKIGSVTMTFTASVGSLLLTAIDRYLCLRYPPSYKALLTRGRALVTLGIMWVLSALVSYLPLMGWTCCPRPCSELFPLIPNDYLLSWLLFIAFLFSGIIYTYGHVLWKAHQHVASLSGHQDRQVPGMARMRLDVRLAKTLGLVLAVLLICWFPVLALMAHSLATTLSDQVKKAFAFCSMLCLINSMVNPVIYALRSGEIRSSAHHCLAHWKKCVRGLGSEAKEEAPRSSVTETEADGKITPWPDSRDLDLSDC
T1 sequence (P21554 whole entry): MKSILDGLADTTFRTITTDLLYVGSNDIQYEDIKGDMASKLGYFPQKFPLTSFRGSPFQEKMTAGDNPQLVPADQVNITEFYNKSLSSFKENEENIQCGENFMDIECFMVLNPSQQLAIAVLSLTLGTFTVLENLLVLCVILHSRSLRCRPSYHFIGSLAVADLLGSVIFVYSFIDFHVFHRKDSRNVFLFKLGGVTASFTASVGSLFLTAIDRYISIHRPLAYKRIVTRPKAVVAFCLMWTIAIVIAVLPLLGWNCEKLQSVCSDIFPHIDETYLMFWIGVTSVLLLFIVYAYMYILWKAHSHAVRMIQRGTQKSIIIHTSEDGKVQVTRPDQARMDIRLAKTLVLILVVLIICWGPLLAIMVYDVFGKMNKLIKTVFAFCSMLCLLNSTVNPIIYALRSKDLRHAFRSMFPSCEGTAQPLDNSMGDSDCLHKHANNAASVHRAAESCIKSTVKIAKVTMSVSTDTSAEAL

Molecule	IC50 (human CB1 receptor; [1]) [µM]	Selectivity CB1 (human CB1 receptor) [fold]	IC50 (human CB2 receptor; [2]) [µM]	Selectivity CB2 (human CB2 receptor) [fold]	IC50 (human CB1 receptor) [µM]	IC50 (human CB2 receptor) [µM]
CCCCCc1cc(OCOC2CCCCC2)c(CC=C(C)CCC=C(C)C)c(OCOC2CCCCC2)c1 [18′, ((((2-(3,7-dimethylocta-2,6-dien-1-yl)-5-pentyl-1,3-phenylene)bis(oxy))bis(methylene))bis(oxy))dicyclohexane]	> 5	1.00	> 5	1.00	–	–
CCCCCc1cc(O)c(C/C=C(\C)CCC=C(C)C)c(OCOCCOC)c1 [Compound 17, 2-(3,7-dimethylocta-2,6-dien-1-yl)-3-((2-methoxyethoxy)methoxy)-5-pentylphenol]	–	–	–	4.00	1 to 4.99	1 to 4.99
CCCCCc1cc(O)c(C/C=C(\C)CCC=C(C)C)c(OCN(C(=O)OC)c2ccccc2)c1 [Compound 23, methyl ((2-(3,7-dimethylocta-2,6-dien-1-yl)-3-hydroxy-5-pentylphenoxy)methyl)(phenyl)carbamate]	< 0.5	–	< 0.5	1.37	–	–
CCCCCc1cc(O)c(C/C=C(\C)CCC=C(C)C)c(OCOCC)c1 [Compound 16, 2-(3,7-dimethylocta-2,6-dien-1-yl)-3-(ethoxymethoxy)-5-pentylphenol]	> 5	–	1 to 4.99	2.83	–	–
CCCc1cc(O)c(C/C=C(\C)CCC=C(C)C)c(OCOC(=O)C(C)(C)C)c1 [Compound 19, (2-(3,7-dimethylocta-2,6-dien-1-yl)-3-hydroxy-5-propylphenoxy)methyl pivalate]	0.5 to 0.99	–	< 0.5	3.89	–	–
CCCCCCC(C)(C)c1cc(O)c(C/C=C(\C)CCC=C(C)C)c(OCOC(=O)OCC)c1 [Compound 21, (2-(3,7-dimethylocta-2,6-dien-1-yl)-3-hydroxy-5-(2-methyloctan-2-yl)phenoxy)methyl ethyl carbonate]	–	–	–	6.92	0.5 to 0.99	< 0.5
CCCCCCC(C)(C)c1cc(O)c(CC=C(C)CCC=C(C)C)c(OCOC(=O)C(C)(C)C)c1 [Compound 22, (2-(3,7-dimethylocta-2,6-dien-1-yl)-3-hydroxy-5-(2-methyloctan-2-yl)phenoxy)methyl pivalate]	1 to 4.99	–	< 0.5	7.25	–	–
CCCCCc1cc(OCOC(=O)C(C)(C)C)c(CC=C(C)CCC=C(C)C)c(OCOC(=O)C(C)(C)C)c1 [7′, ((2-(3,7-dimethylocta-2,6-dien-1-yl)-5-pentyl-1,3-phenylene)bis(oxy))bis(methylene) bis(2,2-dimethylpropanoate)]	> 5	1.00	> 5	1.00	–	–
CCCCCc1cc(OCOC(=O)OCC)c(CC=C(C)CCC=C(C)C)c(OCOC(=O)OCC)c1 [4′, ((2-(3,7-dimethylocta-2,6-dien-1-yl)-5-pentyl-1,3-phenylene)bis(oxy))bis(methylene) diethyl bis(carbonate)]	> 5	–	0.5 to 0.99	24.69	–	–
CCCCCc1cc(O)c(CC=C(C)CCC=C(C)C)c(OCOC2CCCCC2)c1 [Compound 18, 3-((cyclohexyloxy)methoxy)-2-(3,7-dimethylocta-2,6-dien-1-yl)-5-pentylphenol]	> 5	–	< 0.5	28.00	–	–
CCCCCc1cc(O)c(CC=C(C)CCC=C(C)C)c(OCOC(=O)C(C)(C)C)c1 [Compound 7, (2-(3,7-dimethylocta-2,6-dien-1-yl)-3-hydroxy-5-pentylphenoxy)methyl pivalate]	0.5 to 0.99	–	< 0.5	16.02	–	–
dimethyl (((5-butyl-2-(3,7-dimethylocta-2,6-dien-1-yl)-1,3-phenylene)bis(oxy))bis(methylene)) bis(phenylcarbamate) [23′]	> 5	–	> 5	1.88	–	–
CCCCCc1cc(O)c(CC=C(C)CCC=C(C)C)c(OCOC(=O)OCC)c1 [Compound 4, (2-(3,7-dimethylocta-2,6-dien-1-yl)-3-hydroxy-5-pentylphenoxy)methyl ethyl carbonate]	1 to 4.99	–	< 0.5	7.82	–	–
CCCCCCC(C)(C)c1cc(OCOC(=O)C(C)(C)C)c(CC=C(C)CCC=C(C)C)c(OCOC(=O)C(C)(C)C)c1 [22′, ((2-(3,7-dimethylocta-2,6-dien-1-yl)-5-(2-methyloctan-2-yl)-1,3-phenylene)bis(oxy))bis(methylene) bis(2,2-dimethylpropanoate)]	> 5	–	1 to 4.99	7.14	–	–
CCCc1cc(O)c(C/C=C(\C)CCC=C(C)C)c(OCOC(=O)OCC)c1 [Compound 20, (2-(3,7-dimethylocta-2,6-dien-1-yl)-3-hydroxy-5-propylphenoxy)methyl ethyl carbonate]	1 to 4.99	–	1 to 4.99	1.80	–	–
